The source of these data is patent publication US20040126817A1, “Gap junction permeability assay” (priority 2001, published 2004).

Assay [1] deals with GJIC in NRK (Normal Rat Kidney) cells, mainly Cx43. Briefly: Gap junction coupling assay, NRK sender cells (D1-receptor) plus NRK receiver cells (CRE-luciferase), endogenous connexins. The conditions noted are these: for Luciferase responses: NRK sender:receiver 1:1, 10 μM forskolin or 1 μM cAMP, 6 hours; for Luciferase responses / Luciferase response, 50 μM AGA / Luciferase response, 100 μM AGA / Luciferase response, 150 μM AGA / Luciferase response, Vehicle: control = 100%; for Luciferase response, 50 μM AGA / Luciferase response, 100 μM AGA / Luciferase response, 150 μM AGA / Luciferase response, Vehicle: NRK sender:receiver 1:1, agonist 10 μM, 6½ hours; for Luciferase response, 50 μM AGA: 50 μM AGA added 30 min before; for Luciferase response, 100 μM AGA: 100 μM AGA added 30 min before; for Luciferase response, 150 μM AGA: 150 μM AGA added 30 min before; for Luciferase response, Vehicle: no AGA (DMSO). Type of assay: cell-based.

For a further assay, the system named is NRK cells. The assay is described as follows: CRE-luciferase response in NRK receiver cells only (check for endogenous D1-receptor). The class given is cell-based, rat. The conditions noted are these: for Luciferase responses: 10 μM, 6½ hours, control = 100%. The protocol:
These experiments are performed to investigate whether the NRK cells express the D1-receptor endogenously. If NRK cells express D1 receptor endogenously, the receiver cells would be able to generate cAMP and produce a chemiluminescent signal independently of GJIC and the endogenous messenger generated by the sender cell. So only receiver cells are used for this experiment.
Cells are transfected with 5 μg CRE-luciferase DNA and 500 ng pRL-SV40 DNA per 6 cm dish. Each well of a 24-well plate received 250 μL cell suspension and 250 μL media, or approx. 25 000 cells. Cells are stimulated with 10 μM forskolin or apomorphine during 6½ hours before harvesting.

Assay [2] relates to GJIC in CHO (Chinese Hamster Ovary) cells. The assay is described as follows: Gap junction coupling assay, CHO sender and receiver cells with or without exogenous Cx32. The conditions noted are these: 10 μM, 8 hours, control = 100%, duplicates; for Luciferase response, With exogenous Cx32: CHO transfected with Cx32 DNA; for Luciferase response, No exogenous Cx32: CHO. Type of assay: cell-based.

The subject of assay [3] is Cx32-mediated GJIC in HeLa cells. Briefly: Gap junction coupling assay, HeLa sender and receiver cells with or without transfected Cx32. The class given is cell-based, human. Conditions: 10 μM, duplicates; for Luciferase response, Cells transfected with Cx32: 4.8 μg Cx32 DNA; for Luciferase response, Cells transfected with Cx32 / Luciferase response, Cells not transfected with Cx32: 1 ml sender + 0.2 ml receiver cells, percentage of control; for Luciferase response, Single dose Cx32: sender cells 2.4 μg Cx32 DNA; for Luciferase response, Single dose Cx32 / Luciferase response, Double dose Cx32: control = 100%; for Luciferase response, Double dose Cx32: sender cells 4.8 μg Cx32 DNA.

A further assay relates to HeLa cells. The assay is described as follows: CRE-luciferase response in HeLa receiver cells only. Type of assay: cell-based, human. The conditions noted are these: n=2, control = 100%. As for the experimental part:
This is conformed by an experiment in which apomorphine is added to wells containing only receiver cells. As predicted, there is no elicited response. Luciferase activity values are 100.0±6.5% (control, n=2) and 75.9±3.0% (apomorphine, n=2).

For assay [4] the following is noted: IV injection of glucagon in humans; cited from earlier work.

Where a name gives a salt, the structure may show the parent alone.

Take `Nc1ncnc2c1ncn2[C@@H]1O[C@@H]2COP(=O)(O)O[C@H]2[C@H]1O` [cAMP, cyclic adenosine monophosphate]: the Luciferase responses in assay [1] is on record as 87.5±5.8%.
For the compound `C=C[C@@]1(C)CC(=O)[C@]2(O)[C@@]3(C)[C@@H](O)CCC(C)(C)[C@@H]3[C@H](O)[C@H](OC(C)=O)[C@@]2(C)O1` [Forskolin, forskolin], in the assay on NRK cells (10 μM forskolin), the “increase in chemiluminescent signal” value was “more than 8 fold”. Moreover, the Luciferase responses in the assay on NRK cells is listed as 876.6%±64.1. Further, in assay [2], the “Luciferase response, With exogenous Cx32” value worked out at 356.5 ± 21.8% and the “Luciferase response, No exogenous Cx32” value amounted to 701.9 ± 0.0%. Besides, in assay [3], the “Luciferase response, Cells transfected with Cx32” value was determined as 254.6 ± 113.3%; the “Luciferase response, Cells not transfected with Cx32” value is reported as 272.5 ± 40.9%; the “Luciferase response, Single dose Cx32” value was 139.0 ± 14.3%; the “Luciferase response, Double dose Cx32” value was 195.1 ± 18.2%. In assay [1], the Luciferase responses is given as 669.3±56.8%; the “Luciferase response, 50 μM AGA” value is 732.6 ± 52.2%; the “Luciferase response, 100 μM AGA” value was determined as 669.9 ± 18.3%; the “Luciferase response, 150 μM AGA” value came to 685.8 ± 32.0%. The “Luciferase response, Vehicle” value in assay [1] turned out to be 581.3%.
In the case of `CN1CCc2cccc3c2[C@H]1Cc1ccc(O)c(O)c1-3` [Apomorphine, Apomorphine hydrochloride], in the assay with NRK cells, the Luciferase responses was 124.8%±6.8. Besides, the Luciferase activity values in the assay with HeLa cells came out at 75.9±3.0%. Further, in assay [2], the “Luciferase response, With exogenous Cx32” value turned out to be 302.2 ± 2.2% and the “Luciferase response, No exogenous Cx32” value is reported as 222.6 ± 22.6%. For the same compound, in assay [3], the “Luciferase response, Cells transfected with Cx32” value worked out at 217.5 ± 3.0%; the “Luciferase response, Cells not transfected with Cx32” value is 109.5 ± 1.1%; the “Luciferase response, Single dose Cx32” value is given as 121.1 ± 7.2%; the “Luciferase response, Double dose Cx32” value is on record as 176.5 ± 8.1%. In addition, the “increase over background of the chemiluminescent signal” value in assay [1] (NRK sender:receiver 1:1, 10 μM apomorphine) is given as “three-fold increase”. Moreover, in assay [1], the “Luciferase response, 50 μM AGA” value worked out at 156.0 ± 8.9%; the “Luciferase response, 100 μM AGA” value stood at 137.6 ± 9.3%; the “Luciferase response, 150 μM AGA” value came to 109.7 ± 8.0%; the “Luciferase response, Vehicle” value turned out to be 297.5%. Besides, the “Receiver Cell Response” value in assay [1] (NRK sender:receiver 5:1, 6 hours, buffer = 100%, mean±SEM of 3) is given as 324 ± 14.4%.
As for `CC1(C)[C@@H](O)CC[C@]2(C)[C@H]3C(=O)C=C4[C@H]5C[C@@](C)(C(=O)O)CC[C@]5(C)CC[C@@]4(C)[C@]3(C)CC[C@@H]12` [18-alpha-glycyrrhetinic acid], the “effect on the apomorphine-induced chemiluminescent signal (GJIC)” value in assay [1] (NRK, 50, 100, 150 μM AGA, 10 μM apomorphine) is listed as “able to decrease this effect in a concentration-dependent manner”. Also, in assay [1] (NRK, 50, 100, 150 μM AGA, 10 μM forskolin), the “effect on the response to forskolin (independent of GJIC)” value was “unaffected”.
Consider glucagon, for which the “plasma levels of cAMP” value in assay [4] is listed as “up to 200 nM”.
